Test [1] concerns the target T1, human recombinant glucocorticoid receptor (Homo sapiens, UniProt P04150).
T1 construct: This GR was a full-length steroid hormone receptor; host or cells: baculovirus-infected insect cells
T1 sequence (P04150 1-777): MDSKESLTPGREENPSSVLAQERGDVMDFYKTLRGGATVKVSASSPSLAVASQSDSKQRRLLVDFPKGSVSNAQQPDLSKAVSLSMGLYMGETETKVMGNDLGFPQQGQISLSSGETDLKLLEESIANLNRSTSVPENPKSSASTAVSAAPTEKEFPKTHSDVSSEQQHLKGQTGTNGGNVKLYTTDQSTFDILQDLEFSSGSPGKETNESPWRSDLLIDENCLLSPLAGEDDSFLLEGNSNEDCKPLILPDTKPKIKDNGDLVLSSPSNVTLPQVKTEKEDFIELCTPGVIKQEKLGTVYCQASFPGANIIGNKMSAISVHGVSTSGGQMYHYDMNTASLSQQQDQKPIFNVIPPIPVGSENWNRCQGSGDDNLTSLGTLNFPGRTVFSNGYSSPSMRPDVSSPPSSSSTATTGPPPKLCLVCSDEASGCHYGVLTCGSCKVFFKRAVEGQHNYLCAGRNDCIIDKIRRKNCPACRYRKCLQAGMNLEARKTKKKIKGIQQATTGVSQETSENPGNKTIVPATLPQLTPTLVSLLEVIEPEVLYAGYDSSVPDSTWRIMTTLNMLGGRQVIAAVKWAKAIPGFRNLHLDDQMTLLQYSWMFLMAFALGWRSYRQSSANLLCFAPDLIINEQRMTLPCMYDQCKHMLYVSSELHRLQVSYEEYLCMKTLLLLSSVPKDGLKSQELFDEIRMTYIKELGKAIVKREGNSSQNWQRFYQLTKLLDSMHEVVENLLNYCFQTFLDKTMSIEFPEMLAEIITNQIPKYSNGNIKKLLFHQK
In words: Glucocorticoid receptor binding displacement assay with 3H-dexamethasone (Example 22). Conditions: Examples 1-15: 3H-dexamethasone displacement assay of Example 22; read-out: GR binding Ki. The procedure: Binding protocol: Compounds were tested in a binding displacement assay using human recombinant glucocorticoid receptor with ^3H-dexamethasone as the ligand. The source of the receptor was recombinant baculovirus-infected insect cells. This GR was a full-length steroid hormone receptor likely to be associated with heat-shock and other endogenous proteins.
For the IC50 determinations, test compounds were tested at 6 concentrations in duplicate. Test compounds were diluted from 10 mM stock in 100% DMSO. The tested solutions were prepared at 2× final assay concentration in 2% DMSO/assay buffer.
All reagents and the assay plate were kept on ice during the addition of reagents. The reagents were added to wells of a v-bottomed polypropylene plate in the following order: 25 μl of 10 nM 3H-dexamethasone solution, 50 μl of TB/NSB/compound solution and 25 μl of 2 nM GR solution. After the additions, the incubation mixture was mixed and incubated for 2.5 hrs at 4° C.
After 2.5 hrs incubation, unbound counts were removed with dextran coated charcoal (DCC) as follows: 15 μl of DCC solution (10% DCC in assay buffer) was added to all wells and mixed (total volume 115 μl). The plate was centrifuged at 4000 rpm for 10 minutes at 4° C. 75 μl of the supernatants was carefully pipetted into an optiplate. 150 μl of scintillation cocktail were added (Microscint-40, Perkin Elmer). The plate was vigorously shaken for approximately 10 minutes and counted on a Topcount.
The IC50 values were converted to Ki (the inhibition constant) using the Cheng-Prusoff equation.
Reagents: Assay buffer: 10 mM potassium phosphate buffer pH 7.6 containing 5 mM DTT, 10 mM sodium molybdate, 100 μM EDTA and 0.1% BSA.

In test [2] the target is T2, glucocorticoid receptors (GR) in SW1353/MMTV-5 cells (Homo sapiens, UniProt P04150).
T2 construct: contains endogenous glucocorticoid receptors; endogenous in cells; host or cells: SW1353/MMTV-5 (human chondrosarcoma, stably transfected with pMAMneo-Luc reporter only)
T2 sequence (P04150 1-777): T1 sequence (P04150 1-777)
The test is described as follows: GR reporter gene assay using SW1353/MMTV-5 cells (Example 24). Format: cell-based. The method, then:
SW1353/MMTV-5 is an adherent human chondrosarcoma cell line that contains endogenous glucocorticoid receptors. It was transfected with a plasmid (pMAMneo-Luc) encoding firefly luciferase located behind a glucocorticoid-responsive element (GRE) derived from a viral promoter (long terminal repeat of mouse mammary tumor virus). A stable cell line SW1353/MMTV-5 was selected with geneticin, which was required to maintain this plasmid.
SW1353/MMTV-5 cells were distributed in 96-well plates and incubated in medium (without geneticin) for 24 hrs.
On the technique in general: Reporter assays use an easily measured gene product as a stand-in for the process of interest.

From US20130225633A1, “PHENYL HETEROCYCLOALKYL GLUCOCORTICOID RECEPTOR MODULATORS” (Corcept Therapeutics, Inc., priority 2012, published 2013) come the findings set out here.

By Ki is commonly meant the dissociation constant of the complex between target and ligand, obtained from inhibition or displacement. With `O=S(=O)(c1cccc(N2CC[C@@H](F)C2)c1)N1CCC2=Cc3c(cnn3-c3ccc(F)cc3)C[C@]2(COCC2CC2)C1` [Example 1, (R)-4a-Cyclopropylmethoxymethyl-1-(4-fluorophenyl)-6-[3-((R)-3-fluoropyrrolidin-1-yl)-benzenesulfonyl]-4,4a,5,6,7,8-hexahydro-1H-1,2,6-triaza-cyclopenta[b]naphthalene], the Ki in test [1] is at least 1 nM; in test [2] it was under 10 nM.
Consider `O=S(=O)(c1cccc(N2CC[C@H](F)C2)c1)N1CCC2=Cc3c(cnn3-c3ccc(F)cc3)C[C@]2(COCC2CC2)C1` [Example 2, (R)-4a-Cyclopropylmethoxymethyl-1-(4-fluorophenyl)-6-[3-((S)-3-fluoropyrrolidin-1-yl)-phenyl-3-sulfonyl]-4,4a,5,6,7,8-hexahydro-1H-1,2,6-triaza-cyclopenta[b]naphthalene], for which the Ki in test [1] is 0.5 to 1 nM; in test [2], under 10 nM.
The like results for `O=S(=O)(c1cccc(N2CCCC2)c1)N1CCC2=Cc3c(cnn3-c3ccc(F)cc3)C[C@]2(COCC2CC2)C1` [Example 3, (R)-4a-Cyclopropylmethoxymethyl-1-(4-fluorophenyl)-6-[3-(pyrrolidin-1-yl)-benzenesulfonyl]-4,4a,5,6,7,8-hexahydro-1H-1,2,6-triaza-cyclopenta[b]naphthalene] were, in that order, at least 1 nM and under 10 nM.
Consider `COC[C@]12Cc3cnn(-c4ccc(F)cc4)c3C=C1CCN(S(=O)(=O)c1cccc(N3CC[C@@H](F)C3)c1)C2` [Example 4, (R)-1-(4-Fluorophenyl)-6-[3-((R)-3-fluoropyrrolidin-1-yl)-benzenesulfonyl]-4a-methoxymethyl-4,4a,5,6,7,8-hexahydro-1H-1,2,6-triaza-cyclopenta[b]naphthalene], for which the inhibitory constant (Ki) is at least 1 nM in test [1] and 10 to 20 nM in test [2].
For the molecule `COC[C@]12Cc3cnn(-c4ccc(F)cc4)c3C=C1CCN(S(=O)(=O)c1cccc(N3CC[C@H](F)C3)c1)C2` [Example 5, (R)-1-(4-Fluorophenyl)-6-[3-((S)-3-fluoropyrrolidin-1-yl)-benzenesulfonyl]-4a-methoxymethyl-4,4a,5,6,7,8-hexahydro-1H-1,2,6-triaza-cyclopenta[b]naphthalene], the Ki in test [1] is 0.5 to 1 nM; in test [2], under 10 nM.
Regarding `COC[C@]12Cc3cnn(-c4ccc(F)cc4)c3C=C1CCN(S(=O)(=O)c1cccc(N3CCCC3)c1)C2` [Example 6, (R)-1-(4-Fluoro-phenyl)-4a-methoxymethyl-6-[3-(pyrrolidin-1-yl)-benzenesulfonyl)-4,4a,5,6,7,8-hexahydro-1H-1,2,6-triaza-cyclopenta[b]naphthalene], the Ki in test [1] is 0.5 to 1 nM; in test [2] it was 10 to 20 nM.
Regarding `O=S(=O)(c1ccc(N2CC[C@@H](F)C2)cc1)N1CCC2=Cc3c(cnn3-c3ccc(F)cc3)C[C@]2(COCC2CC2)C1` [Example 7, (R)-4a-Cyclopropylmethoxymethyl-1-(4-fluoro-phenyl)-6-[4-((R)-3-fluoro-pyrrolidin-1-yl)-benzenesulfonyl]-4,4a,5,6,7,8-hexahydro-1H-1,2,6-triaza-cyclopenta[b]naphthalene], the Ki was under 0.5 nM in test [1] and under 10 nM in test [2].
`O=S(=O)(c1ccc(N2CCCC2)cc1)N1CCC2=Cc3c(cnn3-c3ccc(F)cc3)C[C@]2(COCC2CC2)C1` [Example 8, (R)-4a-Cyclopropylmethoxymethyl-1-(4-fluoro-phenyl)-6-[4-(pyrrolidin-1-yl)-benzenesulfonyl]-4,4a,5,6,7,8-hexahydro-1H-1,2,6-triaza-cyclopenta[b]naphthalene]: the Ki is at least 1 nM in test [1] and under 10 nM in test [2].
For `COC[C@]12Cc3cnn(-c4ccc(F)cc4)c3C=C1CCN(S(=O)(=O)c1ccc(N3CC[C@@H](F)C3)cc1)C2` [Example 9, (R)-1-(4-Fluoro-phenyl)-6-[4-((R)-3-fluoro-pyrrolidin-1-yl)-benzenesulfonyl]-4a-methoxymethyl-4,4a,5,6,7,8-hexahydro-1H-1,2,6-triaza-cyclopenta[b]naphthalene], the results for the Ki in test [1] and in test [2] were 0.5 to 1 nM and 10 to 20 nM, respectively.
In the case of `COC[C@]12Cc3cnn(-c4ccc(F)cc4)c3C=C1CCN(S(=O)(=O)c1ccc(N3CCCC3)cc1)C2` [Example 10, (R)-1-(4-Fluoro-phenyl)-6-[4-(pyrrolidin-1-yl)-benzenesulfonyl]-4a-methoxymethyl-4,4a,5,6,7,8-hexahydro-1H-1,2,6-triaza-cyclopenta[b]naphthalene], the Ki in test [1] was 0.5 to 1 nM; in test [2], over 20 nM.
As to `CCOC(=O)[C@]12Cc3cnn(-c4ccc(F)cc4)c3C=C1CCN(S(=O)(=O)c1cccc(N3CC[C@@H](F)C3)c1)C2` [Example 11, (R)-1-(4-Fluoro-phenyl)-6-[3-((R)-3-fluoro-pyrrolidin-1-yl)-benzenesulfonyl]-1,4,5,6,7,8-hexahydro-1,2,6-triaza-cyclopenta[b]naphthalene-4a-carboxylic acid ethyl ester], the Ki in test [1] lay within 0.5 to 1 nM; in test [2], 10 to 20 nM.
As for `COC(=O)[C@]12Cc3cnn(-c4ccc(F)cc4)c3C=C1CCN(S(=O)(=O)c1cccc(N3CC[C@@H](F)C3)c1)C2` [Example 12, (R)-1-(4-Fluoro-phenyl)-6-[3-((R)-3-fluoro-pyrrolidin-1-yl)-benzenesulfonyl]-1,4,5,6,7,8-hexahydro-1,2,6-triaza-cyclopenta[b]naphthalene-4a-carboxylic acid methyl ester], the values for the Ki in test [1] and in test [2] were at least 1 nM and over 20 nM, respectively.
As to `O=C(OCF)[C@]12Cc3cnn(-c4ccc(F)cc4)c3C=C1CCN(S(=O)(=O)c1cccc(N3CC[C@@H](F)C3)c1)C2` [Example 13, (R)-1-(4-Fluoro-phenyl)-6-[3-((R)-3-fluoro-pyrrolidin-1-yl)-benzenesulfonyl]-1,4,5,6,7,8-hexahydro-1,2,6-triaza-cyclopenta[b]naphthalene-4a-carboxylic acid fluoromethyl ester], the Ki is 0.5 to 1 nM in test [1] and over 20 nM in test [2].
Regarding `CCOC(=O)[C@]12Cc3cnn(-c4ccc(F)cc4)c3C=C1CCN(S(=O)(=O)c1cccc(N3CCCC3)c1)C2` [Example 14, (R)-1-(4-Fluoro-phenyl)-6-[3-(pyrrolidin-1-yl)-benzenesulfonyl]-1,4,5,6,7,8-hexahydro-1,2,6-triaza-cyclopenta[b]naphthalene-4a-carboxylic acid ethyl ester], the inhibition constant (Ki) in test [1] was 0.5 to 1 nM; in test [2], 10 to 20 nM.
For `O=C(OCF)[C@]12Cc3cnn(-c4ccc(F)cc4)c3C=C1CCN(S(=O)(=O)c1cccc(N3CCCC3)c1)C2` [Example 15, (R)-1-(4-Fluoro-phenyl)-6-[3-(pyrrolidin-1-yl)-benzenesulfonyl]-1,4,5,6,7,8-hexahydro-1,2,6-triaza-cyclopenta[b]naphthalene-4a-carboxylic acid fluoromethyl ester], in that order: 0.5 to 1 nM and over 20 nM.
